The pIC50 is the negative decadic logarithm of the IC50, by convention in mol/L. By ΔTm is commonly meant the shift of the melting midpoint relative to a reference.

Results on eight compounds are retold here after ChEMBL document CHEMBL6078672, “Chemical probes for the identification of the molecular targets of honokiol” (Eur J Med Chem, 2025).

pIC50: −log10 of the molar value.

Data set [1] relates to MDA-MB-231. Kind of data set: Cytotoxicity against human MDA-MB-231 cells assessed as inhibition of cell growth incubated for 48 hrs by MTT assay. In kind it is functional, cell-based. The following applies: MDA-MB-231, 48 h. (Tetrazolium assays rely on reduction of a dye to a coloured formazan, in cell work by metabolically active cells.)
In data set [2] the test system is SK-OV-3. Kind of data set: Cytotoxicity against human SK-OV-3 cells assessed as inhibition of cell growth incubated for 48 hrs by MTT assay. To be noted: SK-OV-3, 48 h. Format: functional, cell-based.
The test system of data set [3] is OVCAR-3. Kind of data set: Cytotoxicity against human OVCAR-3 cells assessed as inhibition of cell growth incubated for 48 hrs by MTT assay. Format: functional, cell-based. To be noted: OVCAR-3, 48 h.
Data set [4] is described as follows: Drug localization in human MDA-MB-231 cells assessed as increase in fluorescent band intensity incubated for 30 mins in presence of UV irradiation by coomassie brilliant blue staining based SDS-PAGE analysis. In kind it is ADME, cell-based. The following applies: mda-mb-231, 0.5 h.
The nature of data set [5]: Drug localization in human MDA-MB-231 cells assessed as increase in fluorescent band intensity at 1 to 10 uM incubated for 30 mins in presence of UV irradiation by coomassie brilliant blue staining based SDS-PAGE analysis. Format: ADME, cell-based. To be noted: mda-mb-231, 0.5 h, dose 1-10 µM.
A short description of data set [6]: Drug localization in human MDA-MB-231 cells assessed as increase in fluorescent band intensity at 20 uM incubated for 30 mins in presence of UV irradiation by coomassie brilliant blue staining based SDS-PAGE analysis. In kind it is ADME, cell-based. To be noted: mda-mb-231, 0.5 h.
The nature of data set [7]: Drug localization in human MDA-MB-231 cells assessed as increase in fluorescent band intensity at 20 uM incubated for 30 mins in absence of UV irradiation by coomassie brilliant blue staining based SDS-PAGE analysis. Format: ADME, cell-based. The following applies: mda-mb-231, 0.5 h.
Data set [8] can be described thus: Drug localization in human membrane fraction of MDA-MB-231 cells assessed as increase in fluorescent band intensity at 10 uM incubated for 30 mins in presence of honokiol by coomassie brilliant blue staining based SDS-PAGE analysis. In kind it is ADME, cell membranes. The following applies: mda-mb-231, 0.5 h.
Data set [9] can be described thus: Drug localization in human MDA-MB-231 cells assessed as increase in fluorescent band intensity at 10 uM incubated for 30 mins in presence of honokiol by coomassie brilliant blue staining based SDS-PAGE analysis. Format: ADME, cell-based. To be noted: mda-mb-231, 0.5 h.
Data set [10] can be described thus: Drug localization in human membrane fraction of MDA-MB-231 cells assessed as increase in fluorescent band intensity at 10 uM incubated for 30 mins in presence of 2-O-ethylhonokiol by coomassie brilliant blue staining based SDS-PAGE analysis. In kind it is ADME, cell membranes. The following applies: mda-mb-231, 0.5 h.
Data set [11] in a line: Drug localization in human MDA-MB-231 cells assessed as increase in fluorescent band intensity at 10 uM incubated for 30 mins in presence of 2-O-ethylhonokiol by coomassie brilliant blue staining based SDS-PAGE analysis. The following applies: mda-mb-231, 0.5 h. Format: ADME, cell-based.
Data set [12] is described as follows: Drug localization in human SK-OV-3 cells assessed as increase in fluorescent band intensity at 10 uM incubated for 30 mins by coomassie brilliant blue staining based SDS-PAGE analysis. Format: ADME, cell-based. The following applies: sk-ov-3, 0.5 h.
Data set [13] can be described thus: Drug localization in human OVCAR-3 cells assessed as increase in fluorescent band intensity at 10 uM incubated for 30 mins by coomassie brilliant blue staining based SDS-PAGE analysis. The following applies: ovcar-3, 0.5 h. Format: ADME, cell-based.
The target in data set [14] is T1, Protein LYRIC (Homo sapiens) (UniProt Q86UE4).
T1 sequence (whole entry): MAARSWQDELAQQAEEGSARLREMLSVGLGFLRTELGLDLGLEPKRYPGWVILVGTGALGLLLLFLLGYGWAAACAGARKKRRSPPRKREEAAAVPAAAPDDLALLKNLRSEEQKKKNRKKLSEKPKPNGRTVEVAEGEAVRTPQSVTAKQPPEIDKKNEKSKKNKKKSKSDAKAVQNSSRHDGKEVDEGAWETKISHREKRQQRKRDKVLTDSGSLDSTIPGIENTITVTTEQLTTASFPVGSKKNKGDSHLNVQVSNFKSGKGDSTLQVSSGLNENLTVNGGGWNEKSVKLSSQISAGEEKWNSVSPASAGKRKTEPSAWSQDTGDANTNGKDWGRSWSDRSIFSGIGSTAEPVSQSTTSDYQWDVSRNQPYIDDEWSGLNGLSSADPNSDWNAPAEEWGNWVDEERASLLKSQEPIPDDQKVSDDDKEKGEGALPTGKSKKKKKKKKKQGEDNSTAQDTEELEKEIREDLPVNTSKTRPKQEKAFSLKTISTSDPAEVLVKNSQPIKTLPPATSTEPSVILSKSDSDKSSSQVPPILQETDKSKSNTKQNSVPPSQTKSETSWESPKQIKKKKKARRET
Kind of data set: Binding affinity to Lyric in human MDA-MB-231 cells assessed as change in melting temperature at 10 uM incubated for 1 hr by cellular thermal shift assay. In kind it is cell-based.

Data set [15] addresses T2, Dipeptidyl peptidase 3 (Homo sapiens) (UniProt Q9NY33).
T2 sequence (whole entry): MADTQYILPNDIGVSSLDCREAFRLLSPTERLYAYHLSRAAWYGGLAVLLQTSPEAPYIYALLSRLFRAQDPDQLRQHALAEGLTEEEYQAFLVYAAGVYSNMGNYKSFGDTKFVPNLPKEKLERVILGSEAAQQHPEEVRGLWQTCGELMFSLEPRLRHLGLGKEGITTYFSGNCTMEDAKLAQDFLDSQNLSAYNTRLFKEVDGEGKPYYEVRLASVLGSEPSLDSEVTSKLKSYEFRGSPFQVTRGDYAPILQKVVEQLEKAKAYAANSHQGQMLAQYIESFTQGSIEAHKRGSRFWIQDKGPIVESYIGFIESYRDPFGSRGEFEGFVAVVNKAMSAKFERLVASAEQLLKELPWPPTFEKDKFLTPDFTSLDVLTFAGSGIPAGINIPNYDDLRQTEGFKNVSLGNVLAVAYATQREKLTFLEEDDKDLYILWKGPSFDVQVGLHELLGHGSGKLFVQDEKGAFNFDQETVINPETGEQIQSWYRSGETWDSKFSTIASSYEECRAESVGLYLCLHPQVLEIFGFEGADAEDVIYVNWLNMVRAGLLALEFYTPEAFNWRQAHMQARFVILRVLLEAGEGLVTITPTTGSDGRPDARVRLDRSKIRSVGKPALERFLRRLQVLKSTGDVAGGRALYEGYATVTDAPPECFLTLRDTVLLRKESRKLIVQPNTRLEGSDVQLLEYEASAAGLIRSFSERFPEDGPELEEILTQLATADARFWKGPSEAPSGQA
Kind of data set: Binding affinity to DPP3 in human MDA-MB-231 cells assessed as change in melting temperature at 10 uM incubated for 1 hr by cellular thermal shift assay. Format: cell-based.

The target of data set [16] is T3, 6-phosphogluconate dehydrogenase, decarboxylating (Homo sapiens) (UniProt P52209).
T3 sequence (whole entry): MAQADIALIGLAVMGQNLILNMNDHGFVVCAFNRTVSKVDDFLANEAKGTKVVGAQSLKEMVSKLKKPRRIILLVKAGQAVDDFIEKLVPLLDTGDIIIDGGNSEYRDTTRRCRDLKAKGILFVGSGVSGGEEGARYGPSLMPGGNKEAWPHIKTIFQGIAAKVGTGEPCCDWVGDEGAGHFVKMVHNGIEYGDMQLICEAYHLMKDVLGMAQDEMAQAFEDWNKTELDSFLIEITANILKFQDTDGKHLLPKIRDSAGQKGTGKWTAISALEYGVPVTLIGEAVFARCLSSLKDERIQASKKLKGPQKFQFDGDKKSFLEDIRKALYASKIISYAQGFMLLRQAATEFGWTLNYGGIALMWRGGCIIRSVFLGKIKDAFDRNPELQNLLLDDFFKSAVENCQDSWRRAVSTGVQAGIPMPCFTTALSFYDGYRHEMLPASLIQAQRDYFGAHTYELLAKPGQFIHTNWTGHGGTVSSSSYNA
Kind of data set: Binding affinity to PGD in human MDA-MB-231 cells assessed as change in melting temperature at 10 uM incubated for 1 hr by cellular thermal shift assay. In kind it is cell-based.

Data set [17] concerns MDA-MB-231. Kind of data set: Binding affinity to CAPN-1 in human MDA-MB-231 cells assessed as change in melting temperature at 10 uM incubated for 1 hr by cellular thermal shift assay. In kind it is cell-based.

As to `C=CCc1cc(-c2cc(Cc3cn(CCCCCC(=O)Nc4ccc(C(=O)c5ccc(NC(=O)CCCC[C@@H]6SC[C@@H]7NC(=O)N[C@@H]76)cc5)cc4)nn3)ccc2OCC)ccc1O`, the pIC50 in data set [1], in data set [2] and in data set [3] was below 4.00 throughout.

For `C=CCc1ccc(OCC)c(-c2ccc(O)c(CC=C)c2)c1`, the results for the pIC50 in data set [1], in [2] and in data set [3] were 4.55, 4.37 and 4.43, respectively.

For the compound `C#CCCC1(CCC(=O)NCCCc2cc(-c3cc(CC=C)ccc3OCC)ccc2O)N=N1`, the pIC50 is 4.41 in [1], 4.36 in data set [2] and 4.30 in [3]. Further, the Drug uptake entry in data set [4] was “Dose-dependent-effect”; in [5], “Not_active”; in [6] it was “Not_active”; in data set [7], “Not_active”; in [8], “Not_active”; in [9], “Not_active”. In addition, the Drug uptake result in [10] and in [11] was “Not_active” each time.

As for `C#CCCC1(CCC(=O)NCCCc2ccc(OCC)c(-c3ccc(O)c(CC=C)c3)c2)N=N1`, the figures for the pIC50 in [1], in data set [2] and in data set [3] were 4.43, 4.41 and 4.52, respectively. Besides, the Drug uptake entry in [4] is “Dose-dependent-effect”; in [5], “Not_active”; in [6], “Active”; in data set [7], “Not_active”; in data set [8] it was “Not_active”; in [9] it was “Not_active”. Besides, the Drug uptake entry is “Not_active” in [10], “Not_active” in data set [11], “Active” in data set [12] and “Active” in data set [13].

With `C=CCc1ccc(OCC)c(-c2ccc(O)c(CCCn3cc(CCCC(=O)Nc4ccc(C(=O)c5ccc(NC(=O)CCCC[C@@H]6SC[C@@H]7NC(=O)N[C@@H]76)cc5)cc4)nn3)c2)c1`, the pIC50 in data set [1], in data set [2] and in data set [3] was below 4.00 throughout.

As to `C=CCc1ccc(O)c(-c2ccc(O)c(CC=C)c2)c1` [HONOKIOL], the pIC50 is 4.34 in [1], 4.32 in data set [2] and 4.29 in data set [3]. Also, the ΔTm in data set [14] is 1 °C; in [15] it was 2.3 °C; in [16], 1.6 °C; in [17], 4.3 °C.

As for `C=CCc1cc(-c2cc(CCCn3cc(CCCC(=O)Nc4ccc(C(=O)c5ccc(NC(=O)CCCC[C@@H]6SC[C@@H]7NC(=O)N[C@@H]76)cc5)cc4)nn3)ccc2OCC)ccc1O`, the negative logarithm of the IC50 (pIC50) in [1], in data set [2] and in data set [3] was below 4.00 each time.

`C=CCc1ccc(OCCCn2cc(CCCC(=O)Nc3ccc(C(=O)c4ccc(NC(=O)CCCC[C@@H]5SC[C@@H]6NC(=O)N[C@@H]65)cc4)cc3)nn2)c(-c2ccc(O)c(CC=C)c2)c1`: the pIC50 in data set [1], in data set [2] and in [3] was below 4.00 in each case.
